{"source": "patent US20240307374A1", "about": "“FORMULATION OF FURIN INHIBITOR FOR INHALATION” (BP ASSET V, INC., priority 2021, published 2024)", "assay_type_in_all_cases": "physicochemical", "key": {"[1]": {"test": "Solubility of freeform in acetone/H2O systems with various water activities", "settings": "for solubility at 2 days: thermodynamic from solid", "description": "(§1) To measure the solubility of freeform in acetone/H2O systems with various water activities, the above experiments were re-performed with addition of aw=0.3 acetone/H2O system. The suspension sample was centrifuged to obtain precipitate and supernatants. Solubility was tested for the supernatants after filtration, and isolated precipitate was tested by XRPD."}, "[2]": {"test": "Thermodynamic relationships study: slurry competition in acetone/H2O systems", "settings": "RT", "description": "Slurry competition was conducted in acetone/H2O systems with various water activities (0.0-1.0). […] Solids were separated and tested by XRPD.\nas §1\nSolids were separated and tested by XRPD."}, "[3]": {"test": "Solubility profile of freeform Type D in citrate buffers", "settings": "for solubility at 24 h: thermodynamic from solid, read-out: Solubility", "description": "Additional solids were added into the sample to generate suspension if clear solution was obtained. The suspension was equilibrated via stirring (1000 rpm) for 24 hours. The suspension was centrifuged to obtain precipitate and supernatants. Solubility and pH were tested for the supernatants after filtration, and the isolated precipitate was tested by XRPD."}, "[4]": {"test": "Complexation stability constant test: solubility in SBECD solutions", "settings": "for solubility at 24 h: thermodynamic from solid", "description": "Additional solid was added into the sample to generate suspension if clear solution was obtained. The suspension was equilibrated via stirring (1000 rpm) for 24 hours. The suspension was centrifuged to obtain precipitate and supernatants. Solubility and pH was determined for the supernatants after filtration, and XRPD was obtained for the isolated precipitate."}}, "note": "Entries after “also recorded” stand apart in the source; their conditions may differ.", "data": [{"smiles": "CC(=O)NCC1CCN(Cc2cc(Oc3ccc(N4CCN(CCC(=O)O)CC4)nc3)nc(-c3cc(Cl)cc(Cl)c3)c2)CC1", "note": "[Freeform Type A]", "values": [{"measurement": "solubility", "setting": "[1]; Acetone/H2O (605:395), aw 0.8, RT", "result": "10.265 (Type A) mg/mL"}, {"measurement": "solubility at 2 days", "setting": "[1]; acetone/H2O (605:395), aw 0.8, organic solvent or mixture, Acetone/H2O (605:395), aw 0.8, RT", "result": 10300, "unit": "µg/mL"}, {"measurement": "solubility at 2 days", "setting": "[1]; acetone/H2O (858:142), aw 0.6, organic solvent or mixture, Acetone/H2O (858:142), aw 0.6, RT", "result": 3290, "unit": "µg/mL"}, {"measurement": "solubility at 2 days", "setting": "[1]; acetone/H2O (950:50), aw 0.4, organic solvent or mixture, Acetone/H2O (950:50), aw 0.4, RT", "result": 1160, "unit": "µg/mL"}, {"measurement": "solubility at 2 days", "setting": "[1]; acetone/H2O (973:27), aw 0.3, organic solvent or mixture, Acetone/H2O (973:27), aw 0.3, RT", "result": 1440, "unit": "µg/mL"}, {"measurement": "solubility at 2 days", "setting": "[1]; water (aw 1), water, H2O, aw 1, RT", "result": 10, "unit": "µg/mL"}]}, {"smiles": "CC(=O)NCC1CCN(Cc2cc(Oc3ccc(N4CCN(CCC(=O)O)CC4)nc3)nc(-c3cc(Cl)cc(Cl)c3)c2)CC1", "note": "[Freeform Type D]", "values": [{"measurement": "thermodynamic relationship of the forms", "setting": "[2]", "result": "thermodynamic form at the ambient conditions; also recorded: more stable hydrate form compared to freeform Type A"}, {"measurement": "solubility at 24 h", "setting": "[3]; 50 mM citrate buffer, pH 4.89, aqueous buffer", "result": 13200, "unit": "µg/mL"}, {"measurement": "form change after equilibrium in all citrate buffers (XRPD)", "setting": "[3]; 10/20/50/100 mM citrate buffers, 24 hours", "result": "No form change"}, {"measurement": "solubility at 24 h", "setting": "[3]; aqueous buffer, 10 mM citrate buffer, buffer pH 2.88, RT, 24 hours, end pH 4.47", "result": 8600, "unit": "µg/mL"}, {"measurement": "solubility at 24 h", "setting": "[3]; aqueous buffer, 10 mM citrate buffer, buffer pH 3.34, RT, 24 hours, end pH 4.57", "result": 4000, "unit": "µg/mL"}, {"measurement": "solubility at 24 h", "setting": "[3]; aqueous buffer, 10 mM citrate buffer, buffer pH 3.89, RT, 24 hours, end pH 4.76", "result": 3400, "unit": "µg/mL"}, {"measurement": "solubility at 24 h", "setting": "[3]; aqueous buffer, 10 mM citrate buffer, buffer pH 4.30, RT, 24 hours, end pH 4.82", "result": 2100, "unit": "µg/mL"}, {"measurement": "solubility at 24 h", "setting": "[3]; aqueous buffer, 10 mM citrate buffer, buffer pH 4.90, RT, 24 hours, end pH 5.21", "result": 700, "unit": "µg/mL"}, {"measurement": "solubility at 24 h", "setting": "[3]; aqueous buffer, 20 mM citrate buffer, buffer pH 3.02, RT, 24 hours, end pH 4.59", "result": 14000, "unit": "µg/mL"}, {"measurement": "solubility at 24 h", "setting": "[3]; aqueous buffer, 20 mM citrate buffer, buffer pH 3.55, RT, 24 hours, end pH 4.69", "result": 9800, "unit": "µg/mL"}, {"measurement": "solubility at 24 h", "setting": "[3]; aqueous buffer, 20 mM citrate buffer, buffer pH 4.01, RT, 24 hours, end pH 4.67", "result": 5500, "unit": "µg/mL"}, {"measurement": "solubility at 24 h", "setting": "[3]; aqueous buffer, 20 mM citrate buffer, buffer pH 4.60, RT, 24 hours, end pH 4.91", "result": 2300, "unit": "µg/mL"}, {"measurement": "solubility at 24 h", "setting": "[3]; aqueous buffer, 20 mM citrate buffer, buffer pH 4.98, RT, 24 hours, end pH 5.28", "result": 800, "unit": "µg/mL"}, {"measurement": "solubility at 24 h", "setting": "[3]; aqueous buffer, 50 mM citrate buffer, buffer pH 3.76, RT, 24 hours, end pH 4.82", "result": 23800, "unit": "µg/mL"}, {"measurement": "solubility at 24 h", "setting": "[3]; aqueous buffer, 50 mM citrate buffer, buffer pH 4.70, RT, 24 hours, end pH 4.93", "result": 4700, "unit": "µg/mL"}, {"measurement": "solubility at 24 h", "setting": "[3]; aqueous buffer, 50 mM citrate buffer, buffer pH 5.27, RT, 24 hours, end pH 5.33", "result": 800, "unit": "µg/mL"}, {"measurement": "solubility at 24 h", "setting": "[3]; aqueous buffer, 100 mM citrate buffer, buffer pH 3.60, RT, 24 hours, end pH 4.92", "result": 24300, "unit": "µg/mL"}, {"measurement": "solubility at 24 h", "setting": "[3]; aqueous buffer, 100 mM citrate buffer, buffer pH 4.07, RT, 24 hours, end pH 4.88", "result": 56800, "unit": "µg/mL"}, {"measurement": "solubility at 24 h", "setting": "[3]; aqueous buffer, 100 mM citrate buffer, buffer pH 4.51, RT, 24 hours, end pH 5.03", "result": 21200, "unit": "µg/mL"}, {"measurement": "solubility at 24 h", "setting": "[3]; aqueous buffer, 100 mM citrate buffer, buffer pH 5.03, RT, 24 hours, end pH 5.16", "result": 4400, "unit": "µg/mL"}, {"measurement": "solubility at 24 h", "setting": "[3]; pH 4.7, aqueous buffer, 50 mM citrate buffer, buffer pH 3.23, RT, 24 hours, end pH 4.70", "result": 33200, "unit": "µg/mL"}, {"measurement": "solubility at 24 h", "setting": "[3]; pH 5.5, aqueous buffer, 100 mM citrate buffer, buffer pH 5.42, RT, 24 hours, end pH 5.50", "result": 600, "unit": "µg/mL"}, {"measurement": "solubility at 24 h", "setting": "[4]; 5% (w/w) SBECD solution, aqueous with cosolvent or surfactant or cyclodextrin, 5% (w/w) SBECD, RT, 24 hours, final pH 7.8, read-out: Solubility", "result": 2610, "unit": "µg/mL"}, {"measurement": "solubility at 24 h", "setting": "[4]; 5% (w/w) SBECD solution, pH 7.8, aqueous with cosolvent or surfactant or cyclodextrin, 5% SBECD (54.23 mmol/L), read-out: API Solubility", "result": 4.07, "unit": "mM"}, {"measurement": "solubility at 24 h", "setting": "[4]; 10% (w/w) SBECD solution, aqueous with cosolvent or surfactant or cyclodextrin, 10% (w/w) SBECD, RT, 24 hours, final pH 7.9, read-out: Solubility", "result": 6470, "unit": "µg/mL"}, {"measurement": "solubility at 24 h", "setting": "[4]; 10% (w/w) SBECD solution, pH 7.9, aqueous with cosolvent or surfactant or cyclodextrin, 10% SBECD (108.46 mmol/L), read-out: API Solubility", "result": 10.1, "unit": "mM"}, {"measurement": "solubility at 24 h", "setting": "[4]; 15% (w/w) SBECD solution, aqueous with cosolvent or surfactant or cyclodextrin, 15% (w/w) SBECD, RT, 24 hours, final pH 7.9, read-out: Solubility", "result": 8810, "unit": "µg/mL"}, {"measurement": "solubility at 24 h", "setting": "[4]; 15% (w/w) SBECD solution, pH 7.9, aqueous with cosolvent or surfactant or cyclodextrin, 15% SBECD (162.70 mmol/L), read-out: API Solubility", "result": 13.7, "unit": "mM"}, {"measurement": "solubility at 24 h", "setting": "[4]; 20% (w/w) SBECD solution, aqueous with cosolvent or surfactant or cyclodextrin, 20% (w/w) SBECD, RT, 24 hours, final pH 7.9, read-out: Solubility", "result": 9350, "unit": "µg/mL"}, {"measurement": "solubility at 24 h", "setting": "[4]; 20% (w/w) SBECD solution, pH 7.9, aqueous with cosolvent or surfactant or cyclodextrin, 20% SBECD (216.93 mmol/L), read-out: API Solubility", "result": 14.6, "unit": "mM"}, {"measurement": "solubility at 24 h", "setting": "[4]; 25% (w/w) SBECD solution, aqueous with cosolvent or surfactant or cyclodextrin, 25% (w/w) SBECD, RT, 24 hours, final pH 7.9, read-out: Solubility", "result": 11000, "unit": "µg/mL"}, {"measurement": "solubility at 24 h", "setting": "[4]; 25% (w/w) SBECD solution, pH 7.9, aqueous with cosolvent or surfactant or cyclodextrin, 25% SBECD (271.16 mmol/L), read-out: API Solubility", "result": 17.1, "unit": "mM"}, {"measurement": "form change during solubility evaluation (XRPD)", "setting": "[4]; SBECD solutions, 24 hours", "result": "No form change"}, {"measurement": "complexation stability constant K^1:1", "setting": "[4]; SBECD, Higuchi-Connors phase-solubility method", "result": 3831, "unit": "M⁻¹"}]}]}
